“And” between values parts separate entries of the source, which are not always exact repeats. Equal entries are not always repeated.
Tests used:
[1] = Immunoblot of KCC site 1 phosphorylation (KCC3 Thr991) in HEK-293 cells transfected with FLAG-KCC3; type: cell-based, human
[2] = molecular target: human SPAK 452-547(C-term) with WNK peptide (RFQV) (Homo sapiens, UniProt Q9UEW8); experiment: Fluorescence polarization of SPAK–WNK peptide interaction; type: binding; conditions: for Inhibitor vs SPAK FL (fluorescence polarization signal): Fig S5b
NCC pThr46/50/55/60 = experiment: Pharmacodynamic study, NCC phosphorylation in kidney of naive mice; type: in vivo, mouse; conditions: Fig S8b (kidney)
Experimental: (§1) To define ZT-1a efficacy in naive mice in vivo, we examined phosphorylation of SPAK, NKCC1, and NCC in kidney, and phosphorylation of SPAK, NKCC1, and KCC3 in brain, after intraperitoneal (i.p.) administration of either ZT-1a (10, 30, 50, and 100 mg/kg) or Closantel (50 mg/kg as a reference). […]
(§2) 5. Pharmacodynamic (PD) study
(§3) Male C57BL/6j wild-type mice (6 weeks old, Charles River Laboratories Edinburgh UK) were treated with ZT-1a (in DMSO, Sigma) by subcutaneous injection at doses of 0, 3, 10, 30, 50 and 100 mg/kg. 50 mg/kg Closantel was administered as a comparative control. Vehicle control mice were treated with an equal volume of DMSO solution. One hour after administration, mice were sacrificed by cervical dislocation, and kidney and brain tissues were rapidly dissected and snap-frozen in liquid nitrogen. Age- […]
(§4) free conditions at the University of Dundee (UK) as described in our recent study1. Animal experiments and breeding were approved by the University of Dundee ethical committee and performed under a […]
(§5) Policy on the Care, Welfare and Treatment of Animals, and regulations set by the University of Dundee and the U.K. Home Office. […]
(§6) Brain and kidney tissues were collected at 60 min post injection, and proteins subjected to immunoblot were probed with antibodies specific for phosphorylated forms of SPAK,

NKCC1 pThr203/207/212 [3] = experiment: Pharmacodynamic study, NKCC1 phosphorylation in kidney of naive mice; type: in vivo, mouse; conditions: Fig S8b (kidney)
Experimental: as §1, §2, §3, §4, §5, §6

SPAK phosphorylation = experiment: Pharmacodynamic study, SPAK phosphorylation in kidney of naive mice; type: in vivo, mouse; conditions: Fig S8b (kidney)
Experimental: as §1, §2, §3, §4, §5, §6

KCC3 pThr1048 = experiment: Pharmacodynamic study, KCC3 phosphorylation in brain of naive mice; type: in vivo, mouse; conditions: for pTh1048 / KCC3: Fig S8a (brain)
Experimental: as §1, §2, §3, §4, §5, §6

NKCC1 pThr203/207/212 [4] = experiment: Pharmacodynamic study, NKCC1 phosphorylation in brain of naive mice; type: in vivo, mouse; conditions: for pTh203.207.212 / NKCC1: Fig S8a (brain)
Experimental: as §1, §2, §3, §4, §5, §6

[5] = system: mouse model of ischemic stroke (tMCAO); experiment: Infarct volume and hemispheric swelling (TTC) 24 h after tMCAO; type: in vivo
C57BL/6J mice = experiment: Kaplan-Meier survival of naive and ischemic stroke mice at 25 mg/kg; type: in vivo, mouse
Experimental: We compared the neuroprotective efficacy of Closantel with that of the pan-WNK-kinase inhibitor WNK463. […] Moreover, toxicity of Closantel and ZT-1a at 25 mg/kg in naive and ischemic stroke mice was reflected in Kaplan–Meier survival curves (Supplementary Fig. 12).
Supplemental Fig. 12 Kaplan-Meier survival curve of naïve and ischemic stroke mice treated with […]
Normal naïve C57BL/6J mice, or mice after tMCAO randomly received Closantel or ZT-1a treatment […]
was monitored for 0-7 days post-treatment. No mortality was detected in the naïve mice treated with Closantel or ZT-1a. However, all ischemic stroke mice treated with Closantel died within 2 days, with a […]
median survival of 1 day. […]
days). n = 3 per group (naïve+Closantel or naive+ZT-1a), n = 6 per group (tMCAO+vehicle or tMCAO+Closantel or tMCAO+ZT-1a), *p < 0.05, Log-rank test.

SPAK pSer373 = experiment: Immunoblot of SPAK/OSR1 p-Ser373/Ser325 in HEK-293 cells; type: cell-based, human; conditions: for pSPAK/SPAK band intensity ratio: single replicates
NKCC1 pThr203/207/212 [6] = experiment: Immunoblot of NKCC1 p-Thr203/Thr207/Thr212 in HEK-293 cells; type: cell-based, human; conditions: for pNKCC1/NKCC1 band intensity ratio: single replicates

SMILES: Cc1cc(C(C#N)c2ccc(Cl)cc2)c(Cl)cc1NC(=O)c1cc(Cl)ccc1O (centres unmarked) [ZT-1a, 5-chloro-N-(5-chloro-4-((4-chlorophenyl)(cyano)methyl)-2-methylphenyl)-2-hydroxybenzamide]
- T906/KCC2 band intensity ratio ([1]; Hypotonic low Cl, 1 uM, single replicates): 0.214 and 0.239 and 0.189 and 0.203
- T906/KCC2 band intensity ratio ([1]; Hypotonic low Cl, 3 uM, single replicates): 0.058 and 0.074 and 0.03 and 0.063
- T906/KCC2 band intensity ratio ([1]; Hypotonic low Cl, 10 uM, single replicates): 0.03 and 0.034 and 0.02 and 0.026
- T906/KCC2 band intensity ratio ([1]; Isotonic control, 1 uM, single replicates (Fig 2 source data)): 0.356 and 0.264 and 0.316 and 0.279
- T906/KCC2 band intensity ratio ([1]; Isotonic control, 3 uM, single replicates): 0.166 and 0.176 and 0.153 and 0.142
- T906/KCC2 band intensity ratio ([1]; Isotonic control, 10 uM, single replicates): 0.065 and 0.041 and 0.054 and 0.049
- IC50 ([2]; 10 nM Lumino-Green WNK peptide, read-out: IC50, decrease in fluorescence polarization (SPAK–WNK peptide)): 325 µM
- Inhibitor vs SPAK FL (fluorescence polarization signal) ([2]; Inhibitor 1e-5 μM): 140.3 and 136 and 147.2
- Inhibitor vs SPAK FL (fluorescence polarization signal) ([2]; Inhibitor 0.0001 μM): 142.6 and 130.1 and 143.7
- Inhibitor vs SPAK FL (fluorescence polarization signal) ([2]; Inhibitor 0.001 μM): 141.9 and 135.2 and 145.3
- Inhibitor vs SPAK FL (fluorescence polarization signal) ([2]; Inhibitor 0.003 μM): 148.6 and 138.3 and 144.2
- Inhibitor vs SPAK FL (fluorescence polarization signal) ([2]; Inhibitor 0.01 μM): 150.4 and 140.8 and 146.2
- Inhibitor vs SPAK FL (fluorescence polarization signal) ([2]; Inhibitor 0.03 μM): 151.3 and 139.2 and 146.8
- Inhibitor vs SPAK FL (fluorescence polarization signal) ([2]; Inhibitor 0.1 μM): 152.2 and 141.6 and 147.3
- Inhibitor vs SPAK FL (fluorescence polarization signal) ([2]; Inhibitor 0.3 μM): 151.7 and 143.1 and 150.3
- Inhibitor vs SPAK FL (fluorescence polarization signal) ([2]; Inhibitor 1 μM): 154.3 and 140.8 and 151.4
- Inhibitor vs SPAK FL (fluorescence polarization signal) ([2]; Inhibitor 3 μM): 149 and 139.7 and 147.8
- Inhibitor vs SPAK FL (fluorescence polarization signal) ([2]; Inhibitor 10 μM): 149.9 and 139.1 and 147.3
- Inhibitor vs SPAK FL (fluorescence polarization signal) ([2]; Inhibitor 100 μM): 127.1 and 121.5 and 130.6
- pTh46.50.55 / NCC (NCC pThr46/50/55/60; 10 mg/kg): 1.78 and 1.82 and 2.81 and 2.21
- pTh60 / NCC (NCC pThr46/50/55/60; 10 mg/kg): 1.01 and 0.99 and 1 and 0.94
- pTh46.50.55 / NCC (NCC pThr46/50/55/60; 30 mg/kg): 2.61 and 1.78 and 2.06 and 1.98
- pTh60 / NCC (NCC pThr46/50/55/60; 30 mg/kg): 1.05 and 0.97 and 0.9 and 1.01
- pTh46.50.55 / NCC (NCC pThr46/50/55/60; 50 mg/kg): 0.4 and 0.7 and 0.69 and 0.55
- pTh46.50.55 / NCC (NCC pThr46/50/55/60; 100 mg/kg): 0.68 and 0.46 and 0.41
- pTh203.207.212 / NKCC1 (NKCC1 pThr203/207/212 [3]; 10 mg/kg): 1.13 and 1.26 and 1.54 and 1.32
- pTh203.207.212 / NKCC1 (NKCC1 pThr203/207/212 [3]; 30 mg/kg): 1.14 and 0.89 and 0.64 and 0.77
- pTh203.207.212 / NKCC1 (NKCC1 pThr203/207/212 [3]; 100 mg/kg): 0.41 and 0.27 and 0.44 and 0.32
- pSer373 / SPAK (SPAK phosphorylation; 10 mg/kg): 0.9 and 1.08 and 0.92 and 0.99
- pSer373 / SPAK (SPAK phosphorylation; 30 mg/kg): 0.85 and 0.8 and 0.86 and 0.76
- pSer373 / SPAK (SPAK phosphorylation; 50 mg/kg): 0.56 and 0.45 and 0.51 and 0.41
- pSer373 / SPAK (SPAK phosphorylation; 100 mg/kg): 0.37 and 0.44 and 0.38 and 0.4
- KCC3 phosphorylation (pThr1048) in naive brains (KCC3 pThr1048; 60 min after administration): neither drug had reduced
- pTh1048 / KCC3 (KCC3 pThr1048; 10 mg/kg): 1.01 and 0.99 and 1 and 0.95
- pTh1048 / KCC3 (KCC3 pThr1048; 30 mg/kg): 1.05 and 0.97 and 0.9 and 0.96
- pTh1048 / KCC3 (KCC3 pThr1048; 50 mg/kg): 0.87 and 0.92 and 1.06 and 0.97
- pTh1048 / KCC3 (KCC3 pThr1048; 100 mg/kg): 0.94 and 0.87 and 0.99 and 0.9
- NKCC1 phosphorylation (pThr203/207/212) in naive brains (NKCC1 pThr203/207/212 [4]; 60 min after administration): neither drug had reduced
- pTh203.207.212 / NKCC1 (NKCC1 pThr203/207/212 [4]; 10 mg/kg): 0.75 and 0.66 and 0.74 and 0.69
- pTh203.207.212 / NKCC1 (NKCC1 pThr203/207/212 [4]; 30 mg/kg): 0.62 and 0.59 and 0.64 and 0.61
- pTh203.207.212 / NKCC1 (NKCC1 pThr203/207/212 [4]; 50 mg/kg): 0.66 and 0.75 and 0.63 and 0.69
- pTh203.207.212 / NKCC1 (NKCC1 pThr203/207/212 [4]; 100 mg/kg): 0.61 and 0.67 and 0.74 and 0.58
- reduction of cerebral hemispheric swelling ([5]; ZT-1a 2.5 or 5 mg/kg, vs vehicle control): 36–54%
- infarct volume ([5]; ZT-1a from 3 h post reperfusion, 24 h post tMCAO, n = 12): 43.6 ± 6.5 mm^3
- decrease of infarct volume ([5]; ZT-1a from 3 h post reperfusion, 24 h post tMCAO, vs vehicle, n = 12): ~ 44%
- mortality in naive mice (C57BL/6J mice; 25 mg/kg i.p., 0-7 days, n = 3): No mortality
- survival of ischemic stroke mice (C57BL/6J mice; 25 mg/kg i.p., Kaplan–Meier, n = 6): survived longer than Closantel-treated mice
- median survival of ischemic stroke mice (C57BL/6J mice; C57BL/6J, mouse, in vivo): 4 days
- pSPAK/SPAK band intensity ratio (SPAK pSer373; Hypotonic low Cl, 1 uM): 0.189 and 0.226 and 0.157 and 0.173
- pSPAK/SPAK band intensity ratio (SPAK pSer373; Hypotonic low Cl, 3 uM): 0.081 and 0.093 and 0.086 and 0.0963
- pSPAK/SPAK band intensity ratio (SPAK pSer373; Hypotonic low Cl, 10 uM): 0.038 and 0.034 and 0.031 and 0.043
- pSPAK/SPAK band intensity ratio (SPAK pSer373; Isotonic control, 1 uM): 0.113 and 0.123 and 0.106 and 0.12
- pSPAK/SPAK band intensity ratio (SPAK pSer373; Isotonic control, 3 uM): 0.067 and 0.051 and 0.053 and 0.059
- pSPAK/SPAK band intensity ratio (SPAK pSer373; Isotonic control, 10 uM): 0.031 and 0.034 and 0.024 and 0.028
- inhibition of SPAK phosphorylation at Ser373 (SPAK pSer373; ~3–10 µM ZT-1a, n = 3): 70 ± 3.8%
- inhibition at 1 µM (NKCC1 pThr203/207/212 [6]; Homo sapiens, HEK293, read-out: inhibition of phosphorylation of NKCC1 p-Thr203/207/212, 1 µM ZT-1a, HEK-293 cells, n = 4): 72 ± 5.2%
- pNKCC1/NKCC1 band intensity ratio (NKCC1 pThr203/207/212 [6]; Hypotonic low Cl, 1 uM): 0.292 and 0.311 and 0.247 and 0.273
- pNKCC1/NKCC1 band intensity ratio (NKCC1 pThr203/207/212 [6]; Hypotonic low Cl, 3 uM): 0.113 and 0.104 and 0.103 and 0.1063
- pNKCC1/NKCC1 band intensity ratio (NKCC1 pThr203/207/212 [6]; Hypotonic low Cl, 10 uM): 0.004 and 0.007 and 0.005 and 0.003
- pNKCC1/NKCC1 band intensity ratio (NKCC1 pThr203/207/212 [6]; Isotonic control, 1 uM): 0.133 and 0.075 and 0.106 and 0.093
- pNKCC1/NKCC1 band intensity ratio (NKCC1 pThr203/207/212 [6]; Isotonic control, 3 uM): 0.048 and 0.046 and 0.043 and 0.041
- pNKCC1/NKCC1 band intensity ratio (NKCC1 pThr203/207/212 [6]; Isotonic control, 10 uM): 0.006 (2×) and 0.004 and 0.005

From paper PMC6946680, “Modulation of brain cation-Cl^− cotransport via the SPAK kinase inhibitor ZT-1a” (Nature Communications, 2020)
